Data as given in US6737383B1, “Herbicidal oxadiazolidines” (priority 1999, dated 2004).

Assays:
bedstraw = assay: Test B pre/postemergence bedstraw; format: in vivo, Galium aparine
Summary of the method: (§1)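 Herbicidal effect was estimated by eye on a ten-point control scale after plants spent twelve to sixteen days in a greenhouse following soil or foliar treatment. Foliar sprays targeted plants at one to four leaves; all doses were formulated in a non-phytotoxic solvent with surfactant.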

blackgrass = assay: Test B pre/postemergence blackgrass; format: in vivo, Alopecurus myosuroides
Summary of the method: as §1

surinam grass = assay: Test B pre/postemergence surinam grass; format: in vivo, Brachiaria decumbens
Summary of the method: as §1

cocklebur = assay: Test B pre/postemergence cocklebur; format: in vivo, Xanthium strumarium
Summary of the method: as §1

corn = assay: Test B pre/postemergence corn; format: in vivo, Zea mays
Summary of the method: as §1

crabgrass = assay: Test B pre/postemergence crabgrass; format: in vivo, Digitaria sanguinalis
Summary of the method: as §1

giant foxtail = assay: Test B pre/postemergence giant foxtail; format: in vivo, Setaria faberii
Summary of the method: as §1

morningglory = assay: Test B pre/postemergence morningglory; format: in vivo, Ipomoea hederacea
Summary of the method: as §1

pigweed = assay: Test B pre/postemergence pigweed; format: in vivo, Amaranthus retroflexus
Summary of the method: as §1

rape = assay: Test B pre/postemergence rape; format: in vivo, Brassica napus
Summary of the method: as §1

soybean = assay: Test B pre/postemergence soybean; format: in vivo, Glycine max
Summary of the method: as §1

sugar beet = assay: Test B pre/postemergence sugar beet; format: in vivo, Beta vulgaris
Summary of the method: as §1

velvetleaf = assay: Test B pre/postemergence velvetleaf; format: in vivo, Abutilon theophrasti
Summary of the method: as §1

wheat = assay: Test B pre/postemergence wheat; format: in vivo, Triticum aestivum
Summary of the method: as §1

wild oat = assay: Test B pre/postemergence wild oat; format: in vivo, Avena fatua
Summary of the method: as §1

purple nutsedge = assay: Test B pre/postemergence purple nutsedge; format: in vivo, Cyperus rotundus
Summary of the method: as §1

[1] = Preemergence, Rate 125 g/ha, scale of 0 to 10 where 0 is no effect and 10 is complete control
[2] = Preemergence, Rate 250 g/ha, scale 0 (no effect) to 10 (complete control)
[3] = Rate 62 g/ha, Preemergence, scale 0 to 10
[4] = Rate 500 g/ha, Postemergence, scale 0 to 10, 0 is no effect, 10 is complete control
[5] = Rate 500 g/ha, Preemergence, scale 0 to 10 (0 no effect, 10 complete control)
[6] = Postemergence, Rate 62 g/ha, scale 0 to 10, 0 is no effect, 10 is complete control
[7] = Postemergence, Rate 125 g/ha, scale of 0 to 10 where 0 is no effect and 10 is complete control
[8] = Rate 250 g/ha, Postemergence, scale 0 to 10, 0 is no effect, 10 is complete control

## C#CC(CC)n1c(=O)on(C(=O)N(c2ccc(F)cc2)C(C)C)c1=O (stereo not shown) [Compound 753]
bedstraw; [1]
  Plant response rating, Bedstraw: 0
bedstraw; [2]
  Bedstraw plant response rating: 3
bedstraw; [3]
  Bedstraw plant response rating: 0
bedstraw; [4]
  Bedstraw plant response rating: 6
bedstraw; [5]
  Bedstraw plant response rating: 3
blackgrass; [6]
  Plant response rating, Blackgrass: 0
blackgrass; [7]
  Blackgrass plant response rating: 2
blackgrass; [1]
  Plant response rating, Blackgrass: 9
blackgrass; [2]
  Blackgrass plant response rating: 9
blackgrass; [3]
  Blackgrass plant response rating: 5
blackgrass; [8]
  Blackgrass plant response rating: 4
blackgrass; [4]
  Blackgrass plant response rating: 4
blackgrass; [5]
  Blackgrass plant response rating: 9
Surinam grass; [6]
  Plant response rating, B. signalgrass: 0
Surinam grass; [7]
  B. signalgrass plant response rating: 0
Surinam grass; Preemergence, Rate 62 g/ha, scale of 0 to 10 where 0 is no effect and 10 is complete control
  B. signalgrass plant response rating: 2
Surinam grass; [1]
  Plant response rating, B. signalgrass: 7
Surinam grass; [2]
  B. signalgrass plant response rating: 9
Surinam grass; [8]
  B. signalgrass plant response rating: 2
Surinam grass; [4]
  B. signalgrass plant response rating: 7
Surinam grass; [5]
  B. signalgrass plant response rating: 9
cocklebur; [6]
  Plant response rating, Cocklebur: 0
cocklebur; [7]
  Cocklebur plant response rating: 0
cocklebur; [1]
  Plant response rating, Cocklebur: 0
cocklebur; [2]
  Cocklebur plant response rating: 0
cocklebur; [3]
  Cocklebur plant response rating: 0
cocklebur; [8]
  Cocklebur plant response rating: 0
cocklebur; [4]
  Cocklebur plant response rating: 4
cocklebur; [5]
  Cocklebur plant response rating: 2
corn; [6]
  Plant response rating, Corn: 0
corn; [7]
  Corn plant response rating: 0
corn; [1]
  Plant response rating, Corn: 0
corn; [2]
  Corn plant response rating: 0
corn; [3]
  Corn plant response rating: 0
corn; [8]
  Corn plant response rating: 0
corn; [4]
  Corn plant response rating: 1
corn; [5]
  Corn plant response rating: 0
crabgrass; [6]
  Plant response rating, Crabgrass: 0
crabgrass; [7]
  Crabgrass plant response rating: 4
crabgrass; [1]
  Plant response rating, Crabgrass: 9
crabgrass; [2]
  Crabgrass plant response rating: 9
crabgrass; [3]
  Crabgrass plant response rating: 9
crabgrass; [8]
  Crabgrass plant response rating: 6
crabgrass; [4]
  Crabgrass plant response rating: 9
crabgrass; [5]
  Crabgrass plant response rating: 9
Giant foxtail; [6]
  Plant response rating, Giant foxtail: 3
Giant foxtail; [7]
  Giant foxtail plant response rating: 8
Giant foxtail; [1]
  Plant response rating, Giant foxtail: 9
Giant foxtail; [2]
  Giant foxtail plant response rating: 9
Giant foxtail; [3]
  Giant foxtail plant response rating: 9
Giant foxtail; [8]
  Giant foxtail plant response rating: 8
Giant foxtail; [4]
  Giant foxtail plant response rating: 9
Giant foxtail; [5]
  Giant foxtail plant response rating: 9
morningglory; [7]
  Morningglory plant response rating: 2
morningglory; [1]
  Plant response rating, Morningglory: 0
morningglory; [2]
  Morningglory plant response rating: 0
morningglory; [3]
  Morningglory plant response rating: 0
morningglory; [8]
  Morningglory plant response rating: 9
morningglory; [4]
  Morningglory plant response rating: 10
morningglory; [5]
  Morningglory plant response rating: 0
pigweed; [6]
  Plant response rating, Redroot pigweed: 4
pigweed; [7]
  Redroot pigweed plant response rating: 5
pigweed; [1]
  Plant response rating, Redroot pigweed: 8
pigweed; [2]
  Redroot pigweed plant response rating: 9
pigweed; [3]
  Redroot pigweed plant response rating: 6
pigweed; [8]
  Redroot pigweed plant response rating: 6
pigweed; [4]
  Redroot pigweed plant response rating: 7
pigweed; [5]
  Redroot pigweed plant response rating: 10
rape; [6]
  Plant response rating, Rape: 0
rape; [7]
  Rape plant response rating: 0
rape; [1]
  Plant response rating, Rape: 5
rape; [2]
  Rape plant response rating: 7
rape; [3]
  Rape plant response rating: 2
rape; [8]
  Rape plant response rating: 0
rape; [4]
  Rape plant response rating: 0
rape; [5]
  Rape plant response rating: 7
soybean; [6]
  Plant response rating, Soybean: 1
soybean; [1]
  Plant response rating, Soybean: 0
soybean; [2]
  Soybean plant response rating: 0
soybean; [3]
  Soybean plant response rating: 0
soybean; [8]
  Soybean plant response rating: 4
soybean; [4]
  Soybean plant response rating: 4
soybean; [5]
  Soybean plant response rating: 0
Sugar beet; [6]
  Plant response rating, Sugarbeets: 0
Sugar beet; [1]
  Plant response rating, Sugarbeets: 0
Sugar beet; [2]
  Sugarbeets plant response rating: 1
Sugar beet; [3]
  Sugarbeets plant response rating: 0
Sugar beet; [8]
  Sugarbeets plant response rating: 5
Sugar beet; [4]
  Sugarbeets plant response rating: 5
Sugar beet; [5]
  Sugarbeets plant response rating: 8
velvetleaf; [6]
  Plant response rating, Velvetleaf: 0
velvetleaf; [1]
  Plant response rating, Velvetleaf: 0
velvetleaf; [3]
  Velvetleaf plant response rating: 0
velvetleaf; [8]
  Velvetleaf plant response rating: 2
velvetleaf; [4]
  Velvetleaf plant response rating: 2
velvetleaf; [5]
  Velvetleaf plant response rating: 2
wheat; [6]
  Plant response rating, Wheat: 0
wheat; [1]
  Plant response rating, Wheat: 0
wheat; [2]
  Wheat plant response rating: 3
wheat; [3]
  Wheat plant response rating: 0
wheat; [8]
  Wheat plant response rating: 0
wheat; [4]
  Wheat plant response rating: 5
wheat; [5]
  Wheat plant response rating: 3
Wild oat; [6]
  Plant response rating, Wild oats: 0
Wild oat; [1]
  Plant response rating, Wild oats: 4
Wild oat; [2]
  Wild oats plant response rating: 8
Wild oat; [3]
  Wild oats plant response rating: 0
Wild oat; [8]
  Wild oats plant response rating: 0
Wild oat; [4]
  Wild oats plant response rating: 2
Wild oat; [5]
  Wild oats plant response rating: 9
Purple nutsedge; [6]
  Plant response rating, Nutsedge: 0
Purple nutsedge; [7]
  Nutsedge plant response rating: 0
Purple nutsedge; [1]
  Plant response rating, Nutsedge: 0
Purple nutsedge; [2]
  Nutsedge plant response rating: 0
Purple nutsedge; [3]
  Nutsedge plant response rating: 0
Purple nutsedge; [8]
  Nutsedge plant response rating: 2
Purple nutsedge; [4]
  Nutsedge plant response rating: 3
Purple nutsedge; [5]
  Nutsedge plant response rating: 0
